# Test results published in patent US12195427B2, “MASP-2 inhibitors and methods of use” (priority 2018, dated 2025).
# Structures can show the parent of a compound that is named as a salt.
# Target: MASP-2 CCP2-SP (Homo sapiens (Human), UniProt O00187)
# Experiment: MASP-2 co-crystallization, X-ray crystallography and structure analysis (H-bonds, van der Waals contacts);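 for Ligand-pharmacophore element distance, pharmacophore element C2: distance from averaged pharmacophore element to bound ligand; missing value means element absent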;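 for Ligand-pharmacophore element distance, pharmacophore element C3: distance from averaged pharmacophore element to bound ligand; missing value means element absent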;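 for Ligand-pharmacophore element distance, pharmacophore element C4: distance from averaged pharmacophore element to bound ligand; missing value means element absent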;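 for Ligand-pharmacophore element distance, pharmacophore element C5: distance from averaged pharmacophore element to bound ligand; missing value means element absent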
# Set-up: van der Waals contact distance, MASP-2 HIS 483 atom CD2 / van der Waals contact distance, MASP-2 HIS 483 atom NE2 / van der Waals contact distance, SER 654 C to compound atom / van der Waals contact distance, SER 654 O to compound atom / van der Waals contact distance, TRP 655 C to compound atom / van der Waals contact distance, MASP-2 GLY 528 atom CA / van der Waals contact distance TRP 655 atom CZ3 / van der Waals contact distance TRP 655 atom N / van der Waals contact distance TRP 655 atom CE3 / van der Waals contact distance GLY 656 atom C / van der Waals contact distance GLY 656 atom CA / van der Waals contact distance GLY 656 atom O / van der Waals contact distance, MASP-2 TYR 607 atom CD1 / van der Waals contact distance, MASP-2 PRO 606 atom O / d(C3,CA1) / d(CA1,N1)2 / d(H4,O1) / d(H4,O2) / d(O1,O2) / d(CA1,O2) / d(CA6,O1) / d(CA6,O2) / d(CA1,C5) / d(O2,H3) / d(N2,C2) / d(CA5,N2) / d(N2,C4) / d(N2,C6) / d(N2,CA3) / d(N2,O3) / d(O4,H2): unit not given beside the values
# Source text: This example illustrates the preparation of recombinant MASP-2 protein, based on UniProt O00187, human mannan-binding lectin serine protease 2. Expression constructs for human MASP-2 CCP2-SP and CCP2-SP-6HIS were generated for recombinant expression in E. coli cells.
# Typically, crystallization hits were obtained by screening against […] 96-well crystallization reagent kits (GRAS6, GRAS2, Hampton Research; MORPHEUS, Molecular Dimensions; Wizard 1&2 Cryo, Rigaku Reagents) and crystal growth was inspected by optical microscopy. Crystals were used directly or further optimized for X-ray diffraction. Crystals were captured with cryogenic loops and dipped into liquid nitrogen directly or cryoprotected with a 20% glycerol in crystallization formulation before flash-cooling in liquid nitrogen.
# Thereafter crystals are transferred once or twice for soaking within the crystallization solution containing the MASP-2 inhibitor.
# Crystals were diffracted with synchrotron X-rays of […] and X-ray diffraction datasets were collected at beamlines SSRL BL9-2, BL14-1, BL12-2 as well as ALS sector 5 using Dectris Pilatus and Eiger detectors. Structures were determined by molecular replacement using portions of the structure 1Q3X as search models and partially refined with Buster 2.10.2 or Refmac 5.8. […] When multiple ligand poses were observed, for instance arising from multiple molecules in the asymmetric unit or refined dual poses within the same molecule, only one pose was selected and analyzed.
# LigPlot+ calls these ‘nonbonded contacts’ or ‘hydrophobic contacts’. Despite the name, there are atom pairings that include possible H-bonds. Thus, in some instances, the Table A2 also contains H-bond interactions.
# [1] = Table A5-1 pharmacophore: distance between elements, S2/S1 region
# [2] = Table A5-2 pharmacophore distance, S3/S4 region
# [3] = Table A7-1, between pharmacophore elements of the bound compound
# Chain of MASP-2 CCP2-SP (O00187 445-686): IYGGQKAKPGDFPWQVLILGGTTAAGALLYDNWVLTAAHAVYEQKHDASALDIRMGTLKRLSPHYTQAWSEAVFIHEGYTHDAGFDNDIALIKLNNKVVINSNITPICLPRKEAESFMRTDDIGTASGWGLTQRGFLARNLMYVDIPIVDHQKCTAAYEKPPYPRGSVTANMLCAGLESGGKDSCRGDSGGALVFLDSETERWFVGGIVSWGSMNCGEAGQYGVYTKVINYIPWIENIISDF
# Chain of MASP-2 CCP2-SP (O00187 364-432 partner): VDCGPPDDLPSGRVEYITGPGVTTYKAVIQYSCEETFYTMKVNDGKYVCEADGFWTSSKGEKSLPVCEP
smiles,measurement,setting,value
"Cc1nc(N)ccc1CNC(=O)[C@H](C)NC(=O)[C@H]1C[C@@H](c2ccccc2)CCN1 [compound 1253, (2R,4S)—N—((S)-1-(((6-Amino-2-methylpyridin-3-yl)methyl)amino)-1-oxopropan-2-yl)-4-phenylpiperidine-2-carboxamide Dihydrochloride]",H-bond distance to MASP-2 ASP 627 atom OD2,"Table A1 (H-Bonds), ASP 627 OD2",3.33
same,H-bond distance to MASP-2 GLY 656 atom N,"Table A1 (H-Bonds), GLY 656 N",3.23
same,H-bond distance to MASP-2 GLY 656 atom O,"Table A1 (H-Bonds), GLY 656 O",2.83
same,H-bond distance to MASP-2 SER 628 atom O,"Table A1 (H-Bonds), SER 628 O",3.12
same,H-bond distance to MASP-2 SER 654 atom O,"Table A1 (H-Bonds), SER 654 O",2.99
same,H-bond distance to MASP-2 SER 657 atom O,"Table A1 (H-Bonds), SER 657 O",2.85
same,"van der Waals contact distance, MASP-2 HIS 483 atom CD2",Table A2-1,3.74
same,"van der Waals contact distance, MASP-2 HIS 483 atom NE2",Table A2-1,3.66
same,"van der Waals contact distance, MASP-2 PHE 529 atom CE2",Table A2-3,3.77
same,"van der Waals contact distance, MASP-2 amino acid atom to compound atom","Table A2-5: TYR 607 (CE1, CE2, OH), PRO 608 (CD, CG), SER 611 (CA)",3.73
same,"van der Waals contact distance, MASP-2 amino acid atom to compound atom","Table A2-7: SER 628 (CB, O, OG)",3.58
same,"van der Waals contact distance, VAL 653 CG1 to compound atom",Table A2-11,3.31
same,"van der Waals contact distance, TRP 655 CA to compound atom",Table A2-12,3.41
same,van der Waals contact distance TRP 655 atom CE3,"Table A2-13, MASP-2 TRP 655 CE3, compound atom in line below",3.61
same,van der Waals contact distance TRP 655 atom CZ3,"Table A2-13, MASP-2 TRP 655 CZ3",3.71
same,"Ligand-pharmacophore element distance, pharmacophore element C2","Table A4-1, element C2",0.28
same,"Ligand-pharmacophore element distance, pharmacophore element C3","Table A4-1, element C3",0.07
same,"Ligand-pharmacophore element distance, pharmacophore element C4","Table A4-1, element C4",0
same,"Ligand-pharmacophore element distance, pharmacophore element C5","Table A4-1, element C5",0
same,"Ligand-pharmacophore element distance, pharmacophore element C6","Table A4-1, element C6",0
same,"Ligand-pharmacophore element distance, pharmacophore element C7","Table A4-1, element C7",0
same,"Ligand-pharmacophore element distance, pharmacophore element CA1","Table A4-1, element CA1",0.59
same,"Ligand-pharmacophore element distance, pharmacophore element CA2","Table A4-1, element CA2",0.23
same,"Ligand-pharmacophore element distance, pharmacophore element CA3","Table A4-1, element CA3",0
same,"Ligand-pharmacophore element distance, pharmacophore element CA4","Table A4-1, element CA4",0
same,"Ligand-pharmacophore element distance, pharmacophore element CA5","Table A4-1, element CA5",0
same,"Ligand-pharmacophore element distance, pharmacophore element CA6","Table A4-1, element CA6",0
same,"d(C3,CA1)",[1],2.87
same,"d(CA1,N1)2",[1],1.37
same,"d(CA1,O1)",[1],4.36
same,"d(CA1,O2)",[1],3.83
same,"d(H4,O1)",[1],4.38
same,"d(H4,O2)",[1],3.69
same,"d(O1,O2)",[1],3.39
same,"d(N2,C2)",[2],1.46
same,"d(N2,CA2)",[2],5.74
same,"d(O2,H3)",[2],2.04
same,"d(O2,N2)",[2],2.70
same,"a(C3, CA1, O1)",Table A6-1 pharmacophore angle,149.95
same,"a(CA1, O1, O2)",Table A6-1 pharmacophore angle,105.84
same,"a(O1, O2, H4)",Table A6-1 pharmacophore angle,131.28
same,"a(N1, CA1, O1) b)","Table A6-1 pharmacophore angle, Methyl-amino-pyridine compounds",174.19
same,"a(O1, O2, H3)",Table A6-2 pharmacophore angle,134.57
same,"a(O1, O2, N2)",Table A6-2 pharmacophore angle,140.99
same,"a(O2, N2, C2)",Table A6-2 pharmacophore angle,130.77
same,"a(O2, N2, CA2)",Table A6-2 pharmacophore angle,155.92
same,"Pharmacophore torsion angle a(C3, CA1, O1, H4)",[3],26.20
same,"Pharmacophore torsion angle a(H4, O1, O2, H3)",[3],115.64
same,"Pharmacophore torsion angle a(H4, O1, O2, N2)",[3],140.24
same,"Pharmacophore torsion angle a(N1, CA1, O1, H4)",[3],3.75
same,"Pharmacophore torsion angle a(O1, H4, O2, CA1)",[3],−82.09
same,"Pharmacophore torsion angle a(O1, O2, N2, C2)",[3],120.69
same,"Pharmacophore torsion angle a(O1, O2, N2, CA2)","Table A7-2, between pharmacophore elements of the bound compound",126.24
